{
  "source": "patent US9498446B2",
  "about": "“Pharmaceutical compositions resistant to abuse” (Egalet Ltd., priority 2009, dated 2016)",
  "experiment": "Dissolution test of naltrexone from intact and ground tablets",
  "format": "physicochemical",
  "procedure": "Polylactid acid was injection moulded in a Haake Minijet (Haake MiniJet II, Thermo Electron, Karlsruhe, Germany) as described in Methods. An inner core filled with approximately 25 mg Naltrexone hydrochloride was prepared and closed in both ends with the above mentioned shell composition. The inner core has a size of 8 mm×4.26 mm×2.49 mm. The inner core was placed in the cavity of a larger shell 2 (H: 20 mm; L: 6 mm; B: 6 mm) with the same shell composition and the large shell was filled with placebo matrix composition as described in Methods.\nDissolution tests of naltrexone were performed in accordance to USP 30, NF 25, (711). Apparatus 2 (paddle method). The dissolution medium consisted of phosphate buffer solution pH 6.8. The volume of the dissolution medium was 500 ml and the rotation speed of the paddles was 50 rpm throughout the dissolution rum. The temperature was 37° C. Samples were withdrawn at suitable time intervals and analysed for content of active drug substance by means of HPLC UV detection. Intact tablets n=2 and tablets milled in a Coffee Grinder, Krups GVX242 (n=2) were analyse in dissolution.\nThe amount of naltrexone was determined by a modified USP method. The technique was reverse phase chromatography, using a Supelco Ascentis Express C18 2.7 μm 4.6*100 mm column. The mobile phase consisted of 1.08 g sodium 1-octanesulphonate, 23.8 g sodium acetate, 1 ml triethylamine, 450 ml methanol and approximately 550 ml water. The HPLC settings were as follows: Isocratic, column temperature 30° C. flow 0.6 ml/min, detection HPLC-UV at 280 nm, injection volume 20 μl with a 6 minutes run time.",
  "note": "“And” between values parts separate entries of the source, which are not always exact repeats. Equal entries are not always repeated.",
  "data": [
    {"smiles": "O=C1CC[C@@]2(O)[C@H]3Cc4ccc(O)c5c4[C@@]2(CCN3CC2CC2)[C@H]1O5", "note": "[Naltrexone]", "values": [
      {"measurement": "Amount of naltrexone found in dissolution medium", "setting": "Ground tablet (Coffee Grinder, Krups GVX242), 0.2 hours, phosphate buffer pH 6.8, 100% = 25 mg", "result": "34.1% and 31.5%"},
      {"measurement": "Amount of naltrexone found in dissolution medium", "setting": "Ground tablet, 0.5 hours", "result": "36.3% and 34.2%"},
      {"measurement": "Amount of naltrexone found in dissolution medium", "setting": "Ground tablet, 0.8 hours", "result": "36.6% and 34.7%"},
      {"measurement": "Amount of naltrexone found in dissolution medium", "setting": "Ground tablet, 1.5 hours", "result": "37.4% and 34.9%"},
      {"measurement": "Amount of naltrexone found in dissolution medium", "setting": "Ground tablet, 20 hours", "result": "39.0% and 37.1%"},
      {"measurement": "Amount of naltrexone found in dissolution medium", "setting": "Ground tablet, 30 hours", "result": "34.9% and 35.9%"}
    ]}
  ]
}
